Where “and” joins values, the source holds several entries; their conditions need not be identical. Identical values can stand only once. Like-named read-outs stand apart in the source and are kept apart here. One block for each compound: values may come before it.
Columns and labels:
[1] = biological target: T1, human α2AAR (Homo sapiens (Human), UniProt P08913); assay: Radioligand competition binding to human α2AAR (HEK293T membranes, [3H]RX82,1002); conditions: human α2AAR; mean ± SEM (Table 3); read-out: Ki
[2] = biological target: T2, ALPHA-2A ADRENERGIC RECEPTOR (Homo sapiens (Human), UniProt P08913); assay: Gi recruitment (G protein); format: cell-based; conditions: for functional classification (agonist / weak agonist): Table 6, result in words
[3] = biological target: T1, human α2AAR; assay: Gαi G protein activation, BRET biosensor assay in HEK293T cells; conditions: for EC50: Gi EC50 ± SE, BRET biosensor, human α2AAR (Table 3); for Emax: HEK-293T
[4] = biological target: T1, human α2AAR; assay: β-arrestin-2 recruitment, BRET biosensor assay in HEK293T cells; conditions: HEK-293T
[5] = biological target: T2, ALPHA-2A ADRENERGIC RECEPTOR; assay: Arrestin recruitment; format: cell-based
[6] = Pharmacokinetics in mice (plasma, brain, CSF); format: in vivo; conditions: for AUC / Cmax: mouse, plasma
Experimental: Pharmacokinetics. Pharmacokinetic experiments were performed by Bienta (Enamine Biology Services) in accordance with Enamine pharmacokinetic study protocols and Institutional Animal Care and Use Guidelines (protocol number 1-2/2020). […] In each compound study, nine time points (5, 15, 30, 60, 120, 240, 360, 480 and 1440 min) were collected, each of the time point treatment group included 3 animals. There was also a control group of one animal. In the ‘9087, ‘7075, ‘4622 studies, male C57BL/6N mice were used, for PS75 CD-1 mice, and for ‘2998 male Balb/cAnN mice. For all compound studies the animals were randomly assigned to the treatment groups before the pharmacokinetic study; all animals were fasted for 4 h before dosing. For injections, ‘9087 was dissolved in Captisol—water (40%:60%, w/v), ‘4622 was dissolved in a 20% Kolliphor HS—physiological saline solution, and ‘7075, PS75, and ‘2998 were dissolved in a 20% 2-HPBCD—aqueous solution. The batches of working formulations were prepared 10 minutes prior to the in vivo study.
(§1) Mice were injected i.p. with 2,2,2-tribromoethanol at 150 mg/kg prior to drawing CSF and blood. CSF was collected under a stereomicroscope from cisterna magna using 1 mL syringes. Blood collection was performed from the orbital sinus in microtainers containing K3EDTA. Animals were sacrificed by cervical dislocation after the blood samples collection. Blood samples were centrifuged 10 min at 3000 rpm. Brain samples (right lobe) were weighed and transferred into 1.5 ml tubes. All samples were immediately processed, flash-frozen and stored at −70° C. until subsequent analysis.
Plasma samples (40 μL) were mixed with 200 μL of internal standard (IS) solution. After mixing by pipetting and centrifuging for 4 min at 6000 rpm, 4 μL of each supernatant was injected into the LC-MS/MS system. Solutions of internal standards were used to quantify compounds in the plasma samples. […] After this, the samples were centrifuged for 4 min at 14,000 rpm, and supernatant was injected into LC-MS/MS system. CSF samples (2 μL) were mixed with 40 μL of an internal stock solution. After mixing by pipetting and centrifuging for 4 min at 6,000 rpm, 5 μL of each supernatant was injected into LC-MS/MS system.
(§2) Analyses of plasma, brain and CSF samples were conducted at Enamine/Bienta. The concentrations of compounds in plasma and brain samples were determined using high performance liquid chromatography/tandem mass spectrometry (HPLC-MS/MS). Data acquisition and system control was performed using Analyst 1.5.2 software (AB Sciex, Canada). […] Pharmacokinetic data analysis was performed using noncompartmental, bolus injection or extravascular input analysis models in WinNonlin 5.2 (PharSight).
as §1, with “mL” for “ml”
as §2
Additional pharmacokinetic experiments were performed by Sai Life Sciences (Hyderabad, India) in accordance with the Sai Study Protocol SAIDMPK/PK-22-04-0340. […] Testing was done in C57BL/6 mice.

[7] = Gi recruitment, Table 6, read-out: EC50
[8] = Gi recruitment, Tables 7-9, read-out: G protein EC50
[9] = Gi recruitment, Tables 7-9, read-out: G protein Emax (%)
[10] = Gi recruitment, Table 6, read-out: Emax (%)
[11] = C57BL/6N ('9087), C57BL/6 (PS75), iv, I.V. 10 mg/kg
[12] = C57BL/6N ('9087), C57BL/6 (PS75), po, P.O. 30 mg/kg

T2 sequence (P08913 whole entry): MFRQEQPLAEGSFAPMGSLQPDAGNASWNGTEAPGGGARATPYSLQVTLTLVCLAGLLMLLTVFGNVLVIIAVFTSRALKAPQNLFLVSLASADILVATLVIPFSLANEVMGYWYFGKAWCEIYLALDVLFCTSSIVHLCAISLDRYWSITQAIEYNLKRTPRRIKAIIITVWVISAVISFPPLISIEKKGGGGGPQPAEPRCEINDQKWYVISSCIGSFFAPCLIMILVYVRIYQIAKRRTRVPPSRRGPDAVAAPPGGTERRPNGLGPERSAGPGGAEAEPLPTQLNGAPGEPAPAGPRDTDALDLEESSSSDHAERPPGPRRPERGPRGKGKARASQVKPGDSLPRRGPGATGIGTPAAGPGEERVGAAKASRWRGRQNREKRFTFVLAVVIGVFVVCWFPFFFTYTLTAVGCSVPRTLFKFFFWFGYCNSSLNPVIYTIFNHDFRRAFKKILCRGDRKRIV
T1 sequence (P08913 whole entry): as above

Compound: O=C1CCc2c(cccc2Nc2ccncc2)N1 [PS84]
- Ki [1]: 500 ± 87 nM
- functional classification (agonist / weak agonist) ([2]; Gi recruitment): agonist
- EC50 [2, 7]: 450 nM
- EC50 [3]: 840 nM
- Emax ([3]; read-out: Gi Emax ± SEM): 37%

Compound: COc1ccc2cccc(Nc3ccncc3)c2c1 [PS71]
- Ki [1]: 240 ± 120 nM
- functional classification (agonist / weak agonist) ([2]; Gi recruitment): agonist
- EC50 [2, 7]: 89 nM
- Fold reduced Gi activity compared to ‘5879 [3]: 15 fold and 16 fold
- EC50 [3]: 100 nM
- Emax ([3]; read-out: Gi Emax ± SEM): 85%
- Emax ([4]; read-out: β-Arr-2 Emax): < 5%

Compound: 4-(1,2,5,6-tetrahydropyridin-3-yl)-1H-indole [PS-NN04]
- G protein Emax (%) ([2]; Gi recruitment, Tables 7-9): 63%
- EC50 [2, 8]: 130 nM
- Arrestin Emax (%) ([5]; Tables 7-9): <10%

Compound: Nc1ccc(-c2cc([N+](=O)[O-])c3[nH]ncc3c2)cn1 [TP70, 5-(7-Nitro-1H-indazol-5-yl)pyridin-2-amine]
- EC50 [2, 8]: 3200 nM
- Emax [2, 9]: -27%
- Emax ([5]; Tables 7-9): < 10%

Compound: Clc1cccc(Cl)c1N=C1NCCN1 [CLON, clonidine, reference compound]
- Emax ([3]; read-out: Gαi Emax): 115 ± 4%
- Emax ([4]; read-out: β-arrestin-2 Emax): 41 ± 3%

Compound: Nc1ccc(Nc2cncc3ccccc23)cc1
- Ki [1]: 4600 ± 2100 nM
- Emax ([3]; read-out: Gi Emax ± SEM): < 5%

Compound: c1cc(Nc2ccncc2)c2sccc2c1 [Compound 4914]
- Ki [1]: 7.2 ± 1 nM
- EC50 [2, 7]: 6.8 nM
- Emax [2, 10]: 76%
- EC50 [3]: 9.1 nM
- Emax ([3]; read-out: Gi Emax ± SEM): 77%
- Emax ([4]; read-out: β-Arr-2 Emax): < 5%

Compound: Clc1ncc2ccccc2c1Nc1ccncc1 [Compound 1718, 3-chloro-N-(pyridin-4-yl)isoquinolin-4-amine]
- Ki [1]: 22 ± 6.7 nM
- functional classification (agonist / weak agonist) ([2]; Gi recruitment): agonist
- EC50 [2, 7]: 8 nM
- Emax [2, 10]: 45%
- EC50 [3]: 14 nM
- Emax ([3]; read-out: Gi Emax ± SEM): 47%
- Emax ([4]; read-out: β-Arr-2 Emax): < 5%

Compound: N#Cc1cc2[nH]ncc2cc1-c1ccc(N)nc1 [BSC2998-E02]
- EC50 [2, 8]: 2900 nM
- Emax [2, 9]: 14%
- Arrestin effect at 100 μM ([5]; at 100 μM): 25% at 100 μM

Compound: c1ccc2c(Nc3ccncc3)cncc2c1 [Compound 9087, N-(pyridin-4-yl)isoquinolin-4-amine]
- AUC [6, 11]: 1750 ng·h/mL
- Cmax [6, 11]: 2020 ng/mL
- AUC [6, 12]: 8430 ng·h/mL
- Cmax [6, 12]: 2720 ng/mL
- AUC Brain ([6]; I.P. 10 mg/kg): 439000 ng·min/mL
- AUC CSF ([6]; I.P. 10 mg/kg): 154000 ng·min/mL
- Cmax Brain ([6]; I.P. 10 mg/kg): 5960 ng/mL
- Cmax CSF ([6]; I.P. 10 mg/kg): 447 ng/mL
- Cmax Brain ([6]; I.V. 10 mg/kg): 6590 ng/mL
- Cmax Brain ([6]; P.O. 30 mg/kg): 14000 ng/mL
- AUC ([6]; ip, I.P. 10 mg/kg): 1830 ng·h/mL
- Cmax ([6]; ip, I.P. 10 mg/kg): 1440 ng/mL

Compound: C1=C(c2cccc3ncncc23)CNCC1 [PS-NN06]
- Emax [2, 9]: < 10%
- Emax ([5]; Tables 7-9): < 10%

More lines, now with the values ahead:

- Emax [2, 9]: < 5%
- Emax ([5]; Tables 7-9): < 5%
Compound: C=C(c1ccc(C(F)(F)F)cc1)c1cc(N)ccn1 [TP101, 2-(1-(4-(Trifluoromethyl)phenyl)vinyl)pyridin-4-amine]

- G protein effect at 100 μM [2]: 18% at 100 μM
- Emax ([5]; Tables 7-9): < 5%
Compound: NC1CCc2ccc(C3=CCCNC3)cc21 (stereo not drawn) [TP92]

- Emax [2, 9]: < 6%
- Emax ([5]; Tables 7-9): < 10%
Compound: COc1cc2[nH]ncc2cc1-c1ccc(N)nc1 [TP79, 5-(6-Methoxy-1H-indazol-5-yl)pyridin-2-amine]

- EC50 [2, 8]: 910 nM
- Emax [2, 9]: 51%
- Emax ([5]; Tables 7-9): < 10%
Compound: Nc1ccc(-c2cc3cn[nH]c3cc2[N+](=O)[O-])cn1 [TP78, 5-(6-Nitro-1H-indazol-5-yl)pyridin-2-amine]

- EC50 [2, 8]: 89 nM
- Emax [2, 9]: 18%
- Emax ([5]; Tables 7-9): < 10%
Compound: Nc1ccc(-c2cc3cn[nH]c3cc2F)cn1 [TP75, 5-(6-Fluoro-1H-indazol-5-yl)pyridin-2-amine]

- G protein effect at 100 μM [2]: 27% at 100 μM
- Emax ([5]; Tables 7-9): < 10%
Compound: Nc1ccc(-c2cc(C(F)(F)F)c3[nH]ncc3c2)cn1 [TP87, 5-(7-(Trifluoromethyl)-1H-indazol-5-yl)pyridin-2-amine]
